Laboratory results from the NIST ThermoML archive (doi:10.1021/acs.jced.8b01097).

Test: xn = mol fraction of the nth substance listed
Conditions: 85 kPa, Liquid; for viscosity: Concentric cylinders viscometry; for mass density: Vibrating tube method

CCC(C)O (stereo not drawn) [butan-2-ol] + CCCO
Conditions | mass density [kg/m3] | viscosity [mPa·s]
293.15 K, x1 = 0.0818 | 804.1 | 2.323
293.15 K, x1 = 0.1601 | 804.6 | 2.428
293.15 K, x1 = 0.2399 | 805 | 2.54
293.15 K, x1 = 0.3499 | 805.5 | 2.702
293.15 K, x1 = 0.4399 | 805.8 | 2.838
293.15 K, x1 = 0.56 | 806 | 3.023
293.15 K, x1 = 0.6515 | 806.1 | 3.166
293.15 K, x1 = 0.7385 | 806.2 | 3.304
293.15 K, x1 = 0.85 | 806.3 | 3.486
293.15 K, x1 = 0.9407 | 806.3 | 3.639
293.15 K, x1 = 1 | 806.2 | 3.743
298.15 K, x1 = 0.0818 | 800.1 | 2.047
298.15 K, x1 = 0.1601 | 800.6 | 2.126
298.15 K, x1 = 0.2399 | 801 | 2.211
298.15 K, x1 = 0.3499 | 801.5 | 2.331
298.15 K, x1 = 0.4399 | 801.8 | 2.432
298.15 K, x1 = 0.56 | 802 | 2.57
298.15 K, x1 = 0.6515 | 802.1 | 2.676
298.15 K, x1 = 0.7385 | 802.2 | 2.778
298.15 K, x1 = 0.85 | 802.2 | 2.913
298.15 K, x1 = 0.9407 | 802.1 | 3.025
298.15 K, x1 = 1 | 802 | 3.101
303.15 K, x1 = 0.0818 | 796.1 | 1.824
303.15 K, x1 = 0.1601 | 796.7 | 1.893
303.15 K, x1 = 0.2399 | 797.1 | 1.962
303.15 K, x1 = 0.3499 | 797.6 | 2.057
303.15 K, x1 = 0.4399 | 797.9 | 2.134
303.15 K, x1 = 0.56 | 798.1 | 2.228
303.15 K, x1 = 0.6515 | 798.2 | 2.31
303.15 K, x1 = 0.7385 | 798.2 | 2.38
303.15 K, x1 = 0.85 | 798.2 | 2.466
303.15 K, x1 = 0.9407 | 798.1 | 2.536
303.15 K, x1 = 1 | 797.9 | 2.579
308.15 K, x1 = 0.0818 | 792.1 | 1.619
308.15 K, x1 = 0.1601 | 792.7 | 1.672
308.15 K, x1 = 0.2399 | 793.1 | 1.724
308.15 K, x1 = 0.3499 | 793.6 | 1.795
308.15 K, x1 = 0.4399 | 793.8 | 1.851
308.15 K, x1 = 0.56 | 794 | 1.925
308.15 K, x1 = 0.6515 | 794.1 | 1.98
308.15 K, x1 = 0.7385 | 794.1 | 2.03
308.15 K, x1 = 0.85 | 794 | 2.089
308.15 K, x1 = 0.9407 | 793.8 | 2.135
308.15 K, x1 = 1 | 793.6 | 2.162
313.15 K, x1 = 0.0818 | 788.1 | 1.444
313.15 K, x1 = 0.1601 | 788.7 | 1.485
313.15 K, x1 = 0.2399 | 789.1 | 1.525
313.15 K, x1 = 0.3499 | 789.6 | 1.58
313.15 K, x1 = 0.4399 | 789.8 | 1.622
313.15 K, x1 = 0.56 | 789.9 | 1.676
313.15 K, x1 = 0.6515 | 789.9 | 1.713
313.15 K, x1 = 0.7385 | 789.8 | 1.747
313.15 K, x1 = 0.85 | 789.7 | 1.786
313.15 K, x1 = 0.9407 | 789.5 | 1.814
313.15 K, x1 = 1 | 789.2 | 1.828
318.15 K, x1 = 0.0818 | 784 | 1.293
318.15 K, x1 = 0.1601 | 784.6 | 1.326
318.15 K, x1 = 0.2399 | 785.1 | 1.358
318.15 K, x1 = 0.3499 | 785.5 | 1.398
318.15 K, x1 = 0.4399 | 785.7 | 1.429
318.15 K, x1 = 0.56 | 785.8 | 1.467
318.15 K, x1 = 0.6515 | 785.7 | 1.493
318.15 K, x1 = 0.7385 | 785.6 | 1.516
318.15 K, x1 = 0.85 | 785.3 | 1.54
318.15 K, x1 = 0.9407 | 785.1 | 1.555
318.15 K, x1 = 1 | 784.7 | 1.559
323.15 K, x1 = 0.0818 | 779.9 | 1.16
323.15 K, x1 = 0.1601 | 780.5 | 1.185
323.15 K, x1 = 0.2399 | 781 | 1.209
323.15 K, x1 = 0.3499 | 781.4 | 1.24
323.15 K, x1 = 0.4399 | 781.5 | 1.263
323.15 K, x1 = 0.56 | 781.5 | 1.29
323.15 K, x1 = 0.6515 | 781.4 | 1.308
323.15 K, x1 = 0.7385 | 781.3 | 1.322
323.15 K, x1 = 0.85 | 781 | 1.336
323.15 K, x1 = 0.9407 | 780.6 | 1.341
323.15 K, x1 = 1 | 780.2 | 1.318

NCCCO [3-amino-1-propanol] + CCC(C)O
Conditions | mass density [kg/m3] | viscosity [mPa·s]
293.15 K, x2 = 0 | 987.8 | 37.33
293.15 K, x2 = 0.081 | 971.2 | 30.36
293.15 K, x2 = 0.1607 | 955.5 | 25.31
293.15 K, x2 = 0.2395 | 940.2 | 20.96
293.15 K, x2 = 0.3499 | 919.3 | 15.85
293.15 K, x2 = 0.4394 | 902.8 | 12.63
293.15 K, x2 = 0.5602 | 881 | 9.361
293.15 K, x2 = 0.658 | 863.9 | 7.574
293.15 K, x2 = 0.7408 | 849.7 | 6.103
293.15 K, x2 = 0.8511 | 830.9 | 4.795
293.15 K, x2 = 0.9396 | 816.2 | 4.079
298.15 K, x2 = 0 | 984.3 | 28.59
298.15 K, x2 = 0.081 | 967.8 | 23.43
298.15 K, x2 = 0.1607 | 951.9 | 19.73
298.15 K, x2 = 0.2395 | 936.6 | 16.46
298.15 K, x2 = 0.3499 | 915.6 | 12.59
298.15 K, x2 = 0.4394 | 899 | 10.15
298.15 K, x2 = 0.5602 | 877.2 | 7.634
298.15 K, x2 = 0.658 | 860 | 6.253
298.15 K, x2 = 0.7408 | 845.7 | 5.076
298.15 K, x2 = 0.8511 | 827 | 4.016
298.15 K, x2 = 0.9396 | 812.2 | 3.403
303.15 K, x2 = 0 | 980.3 | 22.31
303.15 K, x2 = 0.081 | 964 | 18.39
303.15 K, x2 = 0.1607 | 948.1 | 15.6
303.15 K, x2 = 0.2395 | 932.7 | 13.11
303.15 K, x2 = 0.3499 | 911.6 | 10.15
303.15 K, x2 = 0.4394 | 895 | 8.261
303.15 K, x2 = 0.5602 | 873.2 | 6.309
303.15 K, x2 = 0.658 | 856 | 5.213
303.15 K, x2 = 0.7408 | 841.7 | 4.261
303.15 K, x2 = 0.8511 | 823 | 3.377
303.15 K, x2 = 0.9396 | 808.2 | 2.853
308.15 K, x2 = 0 | 976.2 | 17.67
308.15 K, x2 = 0.081 | 959.9 | 14.66
308.15 K, x2 = 0.1607 | 944.2 | 12.51
308.15 K, x2 = 0.2395 | 928.7 | 10.58
308.15 K, x2 = 0.3499 | 907.6 | 8.29
308.15 K, x2 = 0.4394 | 890.9 | 6.808
308.15 K, x2 = 0.5602 | 869 | 5.251
308.15 K, x2 = 0.658 | 851.9 | 4.371
308.15 K, x2 = 0.7408 | 837.6 | 3.604
308.15 K, x2 = 0.8511 | 818.9 | 2.866
308.15 K, x2 = 0.9396 | 803.9 | 2.411
313.15 K, x2 = 0 | 972.3 | 14.21
313.15 K, x2 = 0.081 | 956.1 | 11.85
313.15 K, x2 = 0.1607 | 940.2 | 10.16
313.15 K, x2 = 0.2395 | 924.9 | 8.658
313.15 K, x2 = 0.3499 | 903.7 | 6.856
313.15 K, x2 = 0.4394 | 886.9 | 5.676
313.15 K, x2 = 0.5602 | 865 | 4.422
313.15 K, x2 = 0.658 | 847.8 | 3.715
313.15 K, x2 = 0.7408 | 833.5 | 3.07
313.15 K, x2 = 0.8511 | 814.7 | 2.446
313.15 K, x2 = 0.9396 | 799.6 | 2.053
318.15 K, x2 = 0 | 968.5 | 11.58
318.15 K, x2 = 0.081 | 952.4 | 9.715
318.15 K, x2 = 0.1607 | 936.6 | 8.364
318.15 K, x2 = 0.2395 | 921.1 | 7.173
318.15 K, x2 = 0.3499 | 899.8 | 5.733
318.15 K, x2 = 0.4394 | 882.9 | 4.781
318.15 K, x2 = 0.5602 | 860.9 | 3.758
318.15 K, x2 = 0.658 | 843.6 | 3.174
318.15 K, x2 = 0.7408 | 829.3 | 2.634
318.15 K, x2 = 0.8511 | 810.4 | 2.103
318.15 K, x2 = 0.9396 | 795.2 | 1.76
323.15 K, x2 = 0 | 964.9 | 9.546
323.15 K, x2 = 0.081 | 948.9 | 8.057
323.15 K, x2 = 0.1607 | 933 | 6.971
323.15 K, x2 = 0.2395 | 917.5 | 6.012
323.15 K, x2 = 0.3499 | 896.1 | 4.85
323.15 K, x2 = 0.4394 | 879.2 | 4.064
323.15 K, x2 = 0.5602 | 857 | 3.228
323.15 K, x2 = 0.658 | 839.7 | 2.731
323.15 K, x2 = 0.7408 | 825.2 | 2.275
323.15 K, x2 = 0.8511 | 806.1 | 1.82
323.15 K, x2 = 0.9396 | 790.8 | 1.519
